By Ki is commonly meant the dissociation constant of the complex between target and ligand, obtained from inhibition or displacement. What is called inhibition is the change of the read-out against control, counted positive when it falls.

One assay addresses vanilloid receptor 1 (VR1/TRPV1 receptor) (Homo sapiens, UniProt Q8NER1). Nature of the assay: Functional FLIPR Ca2+ influx assay on vanilloid receptor 1, capsaicin (Cap) stimulus. Conditions: Ki from IC50 by Cheng-Prusoff, read-out: (f) Ki (human being) [nM], Cap. It is filed as cell-based. How it is done:
Furthermore, preference may be given to compounds according to the invention that cause a 50 percent displacement of capsaicin, which is present at a concentration of 100 nM, in a FLIPR assay with CHO K1 cells which were transfected with the human VR1 gene at a concentration of less than 2,000 nM, preferably less than 1,000 nM, particularly preferably less than 300 nM, most particularly preferably less than 100 nM, even more preferably less than 75 nM, additionally preferably less than 50 nM, most preferably less than 10 nM.
In the process, the Ca^2+ influx is quantified in the FLIPR assay with the aid of a Ca^2+-sensitive dye (type Fluo-4, Molecular Probes Europe BV, Leiden, the Netherlands) in a fluorescent imaging plate reader (FLIPR, Molecular Devices, Sunnyvale, USA), as described hereinafter.
Pharmacological Methods I. Functional Testing Carried Out on the Vanilloid Receptor 1 (VRI/TRPV1 Receptor) […]
The number of cells in the suspension is set to 3×10^5 per mL and 150 μL of this suspension are in each case introduced into a recess in the cell culture plates coated as described hereinbefore. In the incubator the plates are left for two to three days at 37° C., 5% by volume of CO2 and 95% relative humidity. Subsequently, the cells are loaded with 2 μM of Fluo-4 and 0.01% by volume of Pluronic F127 (Molecular Probes Europe BV, Leiden, the Netherlands) in HBSS buffer (Hank's buffered saline solution, Gibco Invitrogen GmbH, Karlsruhe, Germany) for 30 min at 37° C., washed 3 times with HBSS buffer and after further incubation for 15 minutes at room temperature used for Ca^2+ measurement in a FLIPR assay. The Ca^2+-dependent fluorescence is in this case measured before and after the addition of substances (λex=488 nm, λem=540 nm). Quantification is carried out by measuring the highest fluorescence intensity (FC, fluorescence counts) over time.
The FLIPR protocol consists of 2 substance additions. First the compounds to be tested (10 μM) are pipetted onto the cells and the Ca^2+ influx is compared with the control (capsaicin 10 μM). This provides the result in % activation based on the Ca^2+ signal after the addition of 10 μM of capsaicin (CP). After 5 minutes' incubation, 100 nM of capsaicin are applied and the Ca^2+ influx is also determined.
Desensitising agonists and antagonists lead to suppression of the Ca^2+ influx. The % inhibition is calculated compared to the maximum achievable inhibition with 10 μM of capsazepine.
Triple analyses (n=3) are carried out and repeated in at least 3 independent experiments (N=4).
Starting from the percentage displacement caused by different concentrations of the compounds to be tested of general formula I, IC50 inhibitory concentrations which cause a 50-percent displacement of capsaicin were calculated. K, values for the test substances were obtained by conversion by means of the Cheng-Prusoff equation (Cheng, Prusoff; Biochem. Pharmacol. 22, 3099-3108, 1973).
The affinity of the compounds according to the invention for the vanilloid receptor 1 (VR1/TRPV1 receptor) was determined as described herein before (pharmacological method I).
The value after the “@” symbol indicates the concentration at which the inhibition (as a percentage) was respectively determined.
Take `Cc1ccc(F)c(-c2nc(C(F)(F)F)ccc2CNC(=O)C(C)c2ccc(CNS(C)(=O)=O)c(F)c2)c1` (stereo not shown) [Example 37, 2-(3-fluoro-4-(methylsulfonamidomethyl)phenyl)-N-((2-(2-fluoro-5-methylphenyl)-6-(trifluoromethyl)pyridin-3-yl)methyl)propanamide]: the Ki was 16 nM. Same read-out and setting: the same measure for `Cc1cccc(-c2cc(C(C)(C)C)ccc2CNC(=O)C(C)c2ccc(CNS(C)(=O)=O)c(F)c2)c1` (stereo not shown) [Example 21, N-((5-tert-butyl-3′-methylbiphenyl-2-yl)methyl)-2-(3-fluoro-4-(methylsulfonamidomethyl)phenyl)propanamide]: 37 nM; for `Cc1cccc(-c2nc(C(F)(F)F)ccc2CNC(=O)C(C)c2ccc(CNS(N)(=O)=O)cc2)c1` (stereo not shown) [Example 88, 2-(4-((sulfamoylamino)methyl)phenyl)-N-((2-m-tolyl-6-(trifluoromethyl)pyridin-3-yl)methyl)propanamide]: 7 nM. On the same count and under the same terms, the value for `CC(C(=O)NCc1ccc(C(F)(F)F)nc1-c1cccc(C(C)(C)C)c1)c1ccc(CNS(C)(=O)=O)c(F)c1` (stereo not shown) [Example 51, N-((2-(3-tert-butylphenyl)-6-(trifluoromethyl)pyridin-3-yl)methyl)-2-(3-fluoro-4-(methylsulfonamidomethyl)phenyl)propanamide] was 1 nM; that for `CC(C(=O)NCc1ccc(C(F)(F)F)nc1-c1cccc(C(F)F)c1)c1ccc(CNS(C)(=O)=O)c(F)c1` (stereo not shown) [Example 52, N-((2-(3-(difluoromethyl)phenyl)-6-(trifluoromethyl)pyridin-3-yl)methyl)-2-(3-fluoro-4-(methylsulfonamidomethyl)phenyl)propanamide] was 7 nM. For `CC(C(=O)NCc1ccc(C(F)(F)F)nc1-c1cc(F)cc(F)c1)c1ccc(CNS(C)(=O)=O)c(F)c1` (stereo not shown) [Example 11, N-((2-(3,5-difluorophenyl)-6-(trifluoromethyl)pyridin-3-yl)methyl)-2-(3-fluoro-4-(methylsulfonamidomethyl)phenyl)propanamide], the Ki was 41 nM. On the same count and under the same terms, the same measure for `Cc1cccc(-c2nc(C(F)(F)F)ccc2CNC(=O)C(C)c2ccc(CNS(C)(=O)=O)c(F)c2)c1F` (stereo not shown) [Example 34, N-((2-(2-fluoro-3-methylphenyl)-6-(trifluoromethyl)pyridin-3-yl)methyl)-2-(3-fluoro-4-(methylsulfonamidomethyl)phenyl)propanamide]: 27 nM; for `Cc1cccc(-c2nc(C(F)(F)F)ccc2CNC(=O)C(C)c2ccc(CNS(C)(=O)=O)c(F)c2)c1C` (stereo not shown) [Example 30, N-((2-(2,3-dimethylphenyl)-6-(trifluoromethyl)pyridin-3-yl)methyl)-2-(3-fluoro-4-(methylsulfonamidomethyl)phenyl)propanamide]: 41 nM; for `CCS(=O)(=O)NCc1ccc(NC(=O)NCc2ccc(C(F)(F)F)nc2-c2cccc(C)c2)cc1` [Example 82, N-(4-(3-((2-m-tolyl-6-(trifluoromethyl)pyridin-3-yl)methyl)ureido)benzyl)ethanesulfonamide]: 23 nM. On the same count and under the same terms, the value for `COc1cc(C(C)C(=O)NCc2ccc(C(F)(F)F)nc2-c2cccc(C)c2)ccc1CNS(C)(=O)=O` (stereo not shown) [Example 78, 2-(3-methoxy-4-(methylsulfonamidomethyl)phenyl)-N-((2-m-tolyl-6-(trifluoromethyl)pyridin-3-yl)methyl)propanamide] was 73 nM; that for `COc1cc(NC(=O)NCc2ccc(C(F)(F)F)nc2-c2cccc(C)c2)ccc1CNS(C)(=O)=O` [Example 80, N-(2-methoxy-4-(3-((2-m-tolyl-6-(trifluoromethyl)pyridin-3-yl)methyl)ureido)benzyl)methanesulfonamide] was 68 nM; that for `Cc1cc(C)cc(-c2nc(C(F)(F)F)ccc2CNC(=O)C(C)c2ccc(CNS(C)(=O)=O)c(F)c2)c1` (stereo not shown) [Example 32, N-((2-(3,5-dimethylphenyl)-6-(trifluoromethyl)pyridin-3-yl)methyl)-2-(3-fluoro-4-(methylsulfonamidomethyl)phenyl)propanamide] was 22 nM. `Cc1cccc(-c2nc(C(C)(C)C)ccc2CNC(=O)C(C)c2ccc(CNS(C)(=O)=O)c(F)c2)c1` (stereo not shown) [Example 23, N-((6-tert-butyl-2-m-tolylpyridin-3-yl)methyl)-2-(3-fluoro-4-(methylsulfonamidomethyl)phenyl)propanamide]: the Ki was found to be 24 nM. On the same count and under the same terms, the same measure for `Cc1cccc(-c2nc(C(F)(F)F)ccc2CNC(=O)C(C)c2ccc(CNS(C)(=O)=O)c(F)c2)c1` (stereo not shown) [Example 24, 2-(3-fluoro-4-(methylsulfonamidomethyl)phenyl)-N-((2-m-tolyl-6-(trifluoromethyl)pyridin-3-yl)methyl)propanamide]: 6 nM; for `CC(C(=O)NCc1ccc(C(F)(F)F)nc1-c1ccc(F)c(F)c1)c1ccc(CNS(C)(=O)=O)c(F)c1` (stereo not shown) [Example 10, N-((2-(3,4-difluorophenyl)-6-(trifluoromethyl)pyridin-3-yl)methyl)-2-(3-fluoro-4-(methylsulfonamidomethyl)phenyl)propanamide]: 17 nM. On the same count and under the same terms, the same measure for `COc1cccc(-c2nc(C(F)(F)F)ccc2CNC(=O)C(C)c2ccc(CNS(C)(=O)=O)c(F)c2)c1` (stereo not shown) [Example 61, 2-(3-fluoro-4-(methylsulfonamidomethyl)phenyl)-N-((2-(3-methoxyphenyl)-6-(trifluoromethyl)pyridin-3-yl)methyl)propanamide]: 53 nM; for `Cc1cccc(-c2nc(C3CC3)ccc2CNC(=O)C(C)c2ccc(CNS(C)(=O)=O)c(F)c2)c1` (stereo not shown) [Example 20, N-((6-cyclopropyl-2-m-tolylpyridin-3-yl)methyl)-2-(3-fluoro-4-(methylsulfonamidomethyl)phenyl)propanamide]: 45 nM; for `CCOc1ccc(-c2nc(C(F)(F)F)ccc2CNC(=O)C(C)c2ccc(CNS(C)(=O)=O)c(F)c2)cc1C` (stereo not shown) [Example 46, N-((2-(4-ethoxy-3-methylphenyl)-6-(trifluoromethyl)pyridin-3-yl)methyl)-2-(3-fluoro-4-(methylsulfonamidomethyl)phenyl)propanamide]: 12 nM.

For `CCOc1cc(C)cc(-c2nc(C(F)(F)F)ccc2CNC(=O)C(C)c2ccc(CNS(C)(=O)=O)c(F)c2)c1` (stereo not shown) [Example 47, N-((2-(3-ethoxy-5-methylphenyl)-6-(trifluoromethyl)pyridin-3-yl)methyl)-2-(3-fluoro-4-(methylsulfonamidomethyl)phenyl)propanamide], the Ki was 37 nM.

The same assay, now with this note: inhibition at 5 μM, read-out: (f) inhibition (human being), Cap, @5 μM.
For the molecule `Cc1cccc(-c2nc(C(F)(F)F)ccc2CNC(=O)[C@H](C)c2ccc(CNS(C)(=O)=O)c(F)c2)c1` [Example 26, (R)-2-(3-fluoro-4-(methylsulfonamidomethyl)phenyl)-N-((2-m-tolyl-6-(trifluoromethyl)pyridin-3-yl)methyl)propanamide], the inhibition at 5 µM was determined as 33%. Same read-out and setting: the value for `Cc1ccc(C)c(-c2nc(C(F)(F)F)ccc2CNC(=O)C(C)c2ccc(CNS(C)(=O)=O)c(F)c2)c1` (stereo not shown) [Example 33, N-((2-(2,5-dimethylphenyl)-6-(trifluoromethyl)pyridin-3-yl)methyl)-2-(3-fluoro-4-(methylsulfonamidomethyl)phenyl)propanamide] was 35%; that for `COc1cncc(-c2nc(C(F)(F)F)ccc2CNC(=O)C(C)c2ccc(CNS(C)(=O)=O)c(F)c2)c1` (stereo not shown) [Example 69, 2-(3-fluoro-4-(methylsulfonamidomethyl)phenyl)-N-((5′-methoxy-6-(trifluoromethyl)-2,3′-bipyridin-3-yl)methyl)propanamide] was 49%.

The values are drawn from patent US8937092B2, “Aryl or N-heteroaryl substituted methanesulfonamide derivatives as vanilloid receptor ligands” (Gruenenthal GmbH, priority 2011, dated 2015).
